In PMC12298629, “New Derivatives of Caracasine Acid with Anti-Leukemic Activity and Limited Effectiveness in Spheroid Cultures” (Pharmaceuticals, 2025):

Tests used:
leukemic cells = test: Effect on the cell cycle; type: cell-based, human; conditions: comparable concentrations to caracasine acid
normal human leukocytes = tested on: normal human leukocytes; design: method as in PMID 31449809, PMID 35430982; conditions: 0.1 nM to 50 μM in 0.01% DMSO; cited from earlier work

Compound | Effect on the cell cycle (leukemic cells) | Effect on primary leukocytes (normal human leukocytes)
C=C(C)C1CCC23CC(CCC2C1(C)CCC(=O)O)C(C)C3=O (single isomer, unassigned; ent-3) [Compound 5, Ent-3,4-Seco-15-Oxo-Kaur-4(19)-en-3-Oic Acid] | no effect | –
C=C(C)C1CCC23CC(CCC2C1(C)CCC(=O)OC(C)=O)C(C)C3=O (single isomer, unassigned; ent-3) [Compound 6, Ent-3,4-Seco-15-Oxo-Kaur-4(19)-en-Acetic Anhydride] | no effect | –
C=C1C(=O)C23CCC(C(=C)C)C(C)(CCC(=O)OC)C2CCC1C3 (stereo not drawn) [Compound 2, Caracasine] | – | no significant effect
